Marks after values point to notes of the source that are not given here.
What was measured:
humans = system: humans; design: method as in earlier work; details: clinical studies in humans, MK-0893 combined with the DPP-4 inhibitor sitagliptin; cited from earlier work
hGCGR HFD/STZ mice = assay: Antihyperglycemic efficacy in hGCGR HFD/STZ mice (acute, chronic, combination with des-fluoro-sitagliptin); format: in vivo, hGCGR mouse; details: GRA1 10 mg/kg, Des-F-sita 200 mg/kg
From the text: The present study made use of a line of hGCGR-expressing mouse (“hGCGR mouse”) generated previously by substituting the hGCGR gene for the mouse GCGR gene. These mice were crossed with C57BL/6J.ob/+ mice (Jackson Laboratories, Bar Harbor, ME) to obtain an hGCGR.ob/+ mouse line. The hGCGR.ob/+ mice were then intercrossed to obtain hGCGR.ob/ob, hGCGR.ob/+, and hGCGR.+/+ mice (with the hGCGR.ob/+ and hGCGR.+/+ mice serving as littermate controls). […] obese (DIO) hGCGR mice were generated by maintaining hGCGR mice on a high-fat diet (HFD) in which 45–60% of calories were in fat (Product S3282, Bio-Serv, Frenchtown, NJ). High-fat-diet-streptozotocin-treated (HFD/STZ) diabetic mice were generated in-house as previously described.
Acute glucose lowering was studied in non-fasted hGCGR.ob/ob mice and HFD/STZ mice administered single doses p.o. of 1, 3 and 10 mg/kg GRA1 in 10 mL/kg 0.5% aqueous methylcellulose. Animals were fasted during the interval between dosing and the final blood glucose measurement. Glucose was measured in blood from tail bleeds using a OneTouch glucometer. In the experiments with hGCGR HFD/STZ mice, treatment groups were matched with respect to body weight and blood glucose levels.
Animals were dosed chronically with GRA1 and the DPP-4 inhibitor des-fluoro-sitagliptin by administering these agents as food admixtures. The admixtures were prepared in-house and by Research Diets (New Brunswick, NJ), with drug concentrations adjusted weekly on the basis of average food consumption and animal weight to provide targeted daily doses. In the GRA1 experiments, the targeted doses were 3, 6, 10, and 30 mg/kg•day. In des-fluoro-sitagliptin experiments, the targeted dose was 200 mg/kg•day, a relatively high amount necessary because this compound has a half-life in rodents of 1–2 h.
Plasma glucagon and active GLP-1 were measured using commercial ELISA kits (Linco Research Immunoassay, St. Charles, MO). […] Plasma insulin was determined by ELISA with a commercial kit (ALPCO Diagnostics, Windham, NH). Plasma concentrations of glycated hemoglobin A1c (HbA1c) were measured using a Micromat II test kit from Bio-Rad Laboratories (Hercules, CA). Total cholesterol, low-density lipoprotein cholesterol (LDL-c) and non-LDL-c, and aspartate aminotransferase were measured using a Roche P Modular Clinical Chemistry analyzer (Indianapolis, IN).
Figure 5 GRA1 lowers glucose in hGCGR HFD/STZ mice and further enhances the efficacy of a DPP-4 inhibitor. (A) Mean (±SEM) blood glucose hGCGR HFD/STZ mice treated with a single dose of 1, 3, or 10 mg/kg GRA1. (B) Non-fasted blood glucose concentrations in hGCGR HFD/STZ mice treated for 6 weeks with 10 mg/kg·day GRA1, 200 mg/kg·day des-fluoro-sitagliptin (des-F-sita), or the two agents in combination. (Additional data from this study are in Table 4.) *p<0.05, **p<0.01, and ***p<0.001 versus HFD/STZ controls; ^#non-significant (p>0.05) versus non-STZ controls; n = 8–15 animals per group.

[1] = design: method as in PMID 16731832; details: cited from earlier work

SMILES | Glucose-lowering efficacy of combination with sitagliptin (humans) | HbA1c (hGCGR HFD/STZ mice; 5 weeks of treatment, control diet 6.1±0.4) [%] | 6-h fasting blood glucose (hGCGR HFD/STZ mice; 5 weeks of treatment, control diet 323±33) [mg/dL] | Liver Triglyceride (hGCGR HFD/STZ mice; 6 weeks, necropsy tissue, control diet 143±10) | Free fatty acid (hGCGR HFD/STZ mice; 6 weeks, terminal plasma, control diet 1.4±0.2) [mM] | Active GLP-1 (hGCGR HFD/STZ mice; 6 weeks, terminal plasma, control diet 2.5±0.1) [pM] | Inactive GLP-1 (hGCGR HFD/STZ mice; 6 weeks, terminal plasma, control diet 8.1±1.1) | Plasma glucagon (hGCGR HFD/STZ mice; 6 weeks, terminal plasma, control diet 133±21) [pg/mL] | Triglyceride (hGCGR HFD/STZ mice; 6 weeks, terminal plasma, control diet 184±26) [mg/dL] | Half-life in rodents [1] [h]
COc1ccc2cc(-c3cc(-c4cc(Cl)cc(Cl)c4)nn3[C@@H](C)c3ccc(C(=O)NCCC(=O)O)cc3)ccc2c1 [MK-0893, N-[(4-{(1S)-1-[3-(3,5-Dichlorophenyl)-5-(6-methoxynaphthalen-2-yl)-1H-pyrazol-1-yl]ethyl}phenyl)carbonyl]-beta-alanine] | did not result in significant additional glucose-lowering efficacy | – | – | – | – | – | – | – | – | –
N[C@@H](CC(=O)N1CCn2c(nnc2C(F)(F)F)C1)Cc1cc(F)ccc1F [Des-F-sita, 7-[(3R)-3-amino-1-oxo-4-(2,5-difluorophenyl)butyl]-5,6,7,8-tetrahydro-3-(trifluoromethyl)-1,2,4-triazolo[4,3-α]pyrazine, reference compound] | – | 5.0±0.4 | 283 ± 34 | 94±15* µg/mg | 1.1 ± 0.1 | 2.9 ± 0.2 | 3.2±0.2*** pM | 87 ± 4 | 161 ± 15 | 1 to 2
